Assays:
AXL = AXL (Homo sapiens, UniProt P30530); assay: DiscoverX scanMAX competition binding assay; set-up: purchased Eurofins DiscoverX Corporation
Text: (§1) Based on its narrow profile when tested in the combined Nanosyn and TSA panels, GW296115 was included in the recently released Kinase Chemogenomic Set (KCGS)[15]. All of the data presented in the Introduction section was collected prior to the inclusion of GW296115 in KCGS and everything that follows has been subsequently generated. Since its inclusion in PKIS and more recently KCGS, we have carried out a broader round of screening at DiscoverX. This profiling data has not been previously released and is reported here for the first time. GW296115 was profiled against 403 wild type human kinases at 1 μM using the DiscoverX scanMAX screening platform, which employs an active site-directed competition binding assay to quantitatively measure interactions between test compounds and kinases, [16]. GW296115 inhibited 25 kinases > 90% at 1 μM, resulting in a selectivity index (S10) of 0.062 at 1 μM (Table S2, Fig. 1C)[17].
(§2) The scanMAX assays were performed at Eurofins DiscoverX Corporation as previously described.

BRSK1 = biological target: T1, BRSK1 (Homo sapiens, UniProt Q8TDC3); assay: DiscoverX scanMAX competition binding assay; set-up: purchased Eurofins DiscoverX Corporation
T1 sequence (Q8TDC3 1-778): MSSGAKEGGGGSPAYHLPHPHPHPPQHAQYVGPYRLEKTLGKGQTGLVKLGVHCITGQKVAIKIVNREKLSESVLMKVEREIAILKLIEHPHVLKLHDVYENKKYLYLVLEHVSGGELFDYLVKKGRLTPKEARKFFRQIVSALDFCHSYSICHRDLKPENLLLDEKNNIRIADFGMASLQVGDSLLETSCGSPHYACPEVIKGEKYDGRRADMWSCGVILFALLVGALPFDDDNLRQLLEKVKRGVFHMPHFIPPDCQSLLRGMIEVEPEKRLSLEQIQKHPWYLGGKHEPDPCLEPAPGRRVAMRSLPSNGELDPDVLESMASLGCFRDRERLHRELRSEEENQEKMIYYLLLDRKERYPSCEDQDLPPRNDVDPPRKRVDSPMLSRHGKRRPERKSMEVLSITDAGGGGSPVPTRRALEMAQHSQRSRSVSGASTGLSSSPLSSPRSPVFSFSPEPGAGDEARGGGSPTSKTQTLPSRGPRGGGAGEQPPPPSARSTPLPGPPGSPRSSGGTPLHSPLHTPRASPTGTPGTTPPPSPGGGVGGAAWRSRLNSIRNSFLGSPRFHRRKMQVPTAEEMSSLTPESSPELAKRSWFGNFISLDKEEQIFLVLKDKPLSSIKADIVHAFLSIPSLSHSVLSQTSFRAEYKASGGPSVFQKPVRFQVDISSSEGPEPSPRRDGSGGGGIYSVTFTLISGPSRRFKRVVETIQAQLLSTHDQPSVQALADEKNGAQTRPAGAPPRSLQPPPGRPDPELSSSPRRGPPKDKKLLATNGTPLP
Text: as §1, §2

DMPK = DMPK (Homo sapiens, UniProt Q09013); assay: DiscoverX scanMAX competition binding assay; set-up: purchased Eurofins DiscoverX Corporation
Text: as §1, §2

PHKG1 = PHKG1 (Homo sapiens, UniProt Q16816); assay: DiscoverX scanMAX competition binding assay; set-up: purchased Eurofins DiscoverX Corporation
Text: as §1, §2

DCLK3/DCAMKL3 = DCLK3/DCAMKL3 (Homo sapiens, UniProt Q9C098); assay: DiscoverX scanMAX competition binding assay; set-up: purchased Eurofins DiscoverX Corporation
Text: as §1, §2

BRSK2 = biological target: T2, BRSK2 (Homo sapiens, UniProt Q8IWQ3); assay: DiscoverX scanMAX competition binding assay; set-up: purchased Eurofins DiscoverX Corporation
T2 sequence (Q8IWQ3 1-736): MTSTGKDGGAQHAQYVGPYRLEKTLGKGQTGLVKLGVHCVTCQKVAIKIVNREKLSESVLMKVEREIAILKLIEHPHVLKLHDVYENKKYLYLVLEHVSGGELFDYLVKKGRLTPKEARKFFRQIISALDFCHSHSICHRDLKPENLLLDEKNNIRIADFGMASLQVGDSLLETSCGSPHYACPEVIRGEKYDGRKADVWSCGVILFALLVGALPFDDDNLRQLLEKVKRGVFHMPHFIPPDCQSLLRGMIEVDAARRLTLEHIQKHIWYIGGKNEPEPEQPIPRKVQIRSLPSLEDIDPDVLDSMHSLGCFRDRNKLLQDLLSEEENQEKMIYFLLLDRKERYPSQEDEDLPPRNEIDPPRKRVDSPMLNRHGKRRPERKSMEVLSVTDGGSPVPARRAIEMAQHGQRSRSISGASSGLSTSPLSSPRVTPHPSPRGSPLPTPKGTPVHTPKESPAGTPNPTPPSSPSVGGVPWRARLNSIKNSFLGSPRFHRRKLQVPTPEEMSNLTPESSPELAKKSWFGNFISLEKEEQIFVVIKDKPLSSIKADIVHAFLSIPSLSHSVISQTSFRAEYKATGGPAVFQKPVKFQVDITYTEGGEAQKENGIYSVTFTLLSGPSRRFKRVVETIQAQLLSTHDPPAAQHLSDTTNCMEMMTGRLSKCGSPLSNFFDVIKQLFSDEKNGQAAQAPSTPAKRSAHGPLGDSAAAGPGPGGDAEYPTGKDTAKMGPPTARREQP
Text: as §1, §2

SGK3 = SGK3 (Homo sapiens, UniProt Q96BR1); assay: DiscoverX scanMAX competition binding assay; set-up: purchased Eurofins DiscoverX Corporation
Text: as §1, §2

NUAK1/ARK5 = NUAK1/ARK5 (Homo sapiens, UniProt O60285); assay: DiscoverX scanMAX competition binding assay; set-up: purchased Eurofins DiscoverX Corporation
Text: as §1, §2

DAPK1 = DAPK1 (Homo sapiens, UniProt P53355); assay: DiscoverX scanMAX competition binding assay; set-up: purchased Eurofins DiscoverX Corporation
Text: as §1, §2

[1] = system: cytoplasmic domain of PDGFR; set-up: method as in PMID 10048786; settings: insect cells; read-out: IC50, autophosphorylation of the cytoplasmic domain of PDGFR in insect cells; cited from earlier work
MAP2K5/MEK5 = biological target: T3, MAP2K5/MEK5 (Homo sapiens, UniProt Q13163); assay: Eurofins kinase enzymatic LANCE assay; format: biochemical
T3 construct: purchased Eurofins
Text: Due to our interest in the activity of GW296115 on several understudied IDG kinases, we collected full dose–response curves for all wild type kinases inhibited ≥ 75% in the DiscoverX panel that were offered by Eurofins. Having data in orthogonal formats is a powerful way to confirm inhibitory activity and adds rigor to our results. Eurofins has kinase enzymatic radiometric assays for 35 of the kinases on this list (Table S2) and a kinase enzymatic LANCE assay for one additional kinase (MAP2K5/MEK5).
Eurofins kinase enzymatic radiometric assays were carried out at the Km of ATP in dose–response (9-pt curve in duplicate) for each kinase for which it was offered.

Chain of DMPK (Q09013 whole entry): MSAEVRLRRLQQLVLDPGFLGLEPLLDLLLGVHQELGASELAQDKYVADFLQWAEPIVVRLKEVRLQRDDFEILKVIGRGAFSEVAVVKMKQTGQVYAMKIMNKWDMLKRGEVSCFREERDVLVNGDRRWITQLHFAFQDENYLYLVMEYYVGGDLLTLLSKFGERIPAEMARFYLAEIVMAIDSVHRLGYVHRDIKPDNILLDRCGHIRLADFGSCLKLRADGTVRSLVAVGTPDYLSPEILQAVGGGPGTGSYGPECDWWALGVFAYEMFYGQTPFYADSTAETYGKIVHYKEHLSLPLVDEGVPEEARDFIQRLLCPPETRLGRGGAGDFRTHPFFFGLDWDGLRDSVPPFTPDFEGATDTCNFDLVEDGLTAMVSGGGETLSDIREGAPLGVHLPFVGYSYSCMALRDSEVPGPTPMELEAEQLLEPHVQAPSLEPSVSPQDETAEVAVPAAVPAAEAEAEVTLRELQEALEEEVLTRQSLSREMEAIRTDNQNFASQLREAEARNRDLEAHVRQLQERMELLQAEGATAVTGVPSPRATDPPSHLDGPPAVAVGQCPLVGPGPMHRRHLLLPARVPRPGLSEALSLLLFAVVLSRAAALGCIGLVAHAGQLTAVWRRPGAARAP
Chain of PHKG1 (Q16816 whole entry): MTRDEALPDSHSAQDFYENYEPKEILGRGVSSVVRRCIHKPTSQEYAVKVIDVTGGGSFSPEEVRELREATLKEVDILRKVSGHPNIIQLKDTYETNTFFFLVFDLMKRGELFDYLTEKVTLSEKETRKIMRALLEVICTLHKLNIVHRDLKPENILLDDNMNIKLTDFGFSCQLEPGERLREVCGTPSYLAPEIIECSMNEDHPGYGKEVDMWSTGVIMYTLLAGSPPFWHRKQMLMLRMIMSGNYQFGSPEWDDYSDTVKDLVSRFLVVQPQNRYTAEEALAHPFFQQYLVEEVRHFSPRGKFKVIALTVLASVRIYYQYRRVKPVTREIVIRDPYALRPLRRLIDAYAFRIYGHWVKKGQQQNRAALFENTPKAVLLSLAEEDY
Chain of DAPK1 (P53355 whole entry): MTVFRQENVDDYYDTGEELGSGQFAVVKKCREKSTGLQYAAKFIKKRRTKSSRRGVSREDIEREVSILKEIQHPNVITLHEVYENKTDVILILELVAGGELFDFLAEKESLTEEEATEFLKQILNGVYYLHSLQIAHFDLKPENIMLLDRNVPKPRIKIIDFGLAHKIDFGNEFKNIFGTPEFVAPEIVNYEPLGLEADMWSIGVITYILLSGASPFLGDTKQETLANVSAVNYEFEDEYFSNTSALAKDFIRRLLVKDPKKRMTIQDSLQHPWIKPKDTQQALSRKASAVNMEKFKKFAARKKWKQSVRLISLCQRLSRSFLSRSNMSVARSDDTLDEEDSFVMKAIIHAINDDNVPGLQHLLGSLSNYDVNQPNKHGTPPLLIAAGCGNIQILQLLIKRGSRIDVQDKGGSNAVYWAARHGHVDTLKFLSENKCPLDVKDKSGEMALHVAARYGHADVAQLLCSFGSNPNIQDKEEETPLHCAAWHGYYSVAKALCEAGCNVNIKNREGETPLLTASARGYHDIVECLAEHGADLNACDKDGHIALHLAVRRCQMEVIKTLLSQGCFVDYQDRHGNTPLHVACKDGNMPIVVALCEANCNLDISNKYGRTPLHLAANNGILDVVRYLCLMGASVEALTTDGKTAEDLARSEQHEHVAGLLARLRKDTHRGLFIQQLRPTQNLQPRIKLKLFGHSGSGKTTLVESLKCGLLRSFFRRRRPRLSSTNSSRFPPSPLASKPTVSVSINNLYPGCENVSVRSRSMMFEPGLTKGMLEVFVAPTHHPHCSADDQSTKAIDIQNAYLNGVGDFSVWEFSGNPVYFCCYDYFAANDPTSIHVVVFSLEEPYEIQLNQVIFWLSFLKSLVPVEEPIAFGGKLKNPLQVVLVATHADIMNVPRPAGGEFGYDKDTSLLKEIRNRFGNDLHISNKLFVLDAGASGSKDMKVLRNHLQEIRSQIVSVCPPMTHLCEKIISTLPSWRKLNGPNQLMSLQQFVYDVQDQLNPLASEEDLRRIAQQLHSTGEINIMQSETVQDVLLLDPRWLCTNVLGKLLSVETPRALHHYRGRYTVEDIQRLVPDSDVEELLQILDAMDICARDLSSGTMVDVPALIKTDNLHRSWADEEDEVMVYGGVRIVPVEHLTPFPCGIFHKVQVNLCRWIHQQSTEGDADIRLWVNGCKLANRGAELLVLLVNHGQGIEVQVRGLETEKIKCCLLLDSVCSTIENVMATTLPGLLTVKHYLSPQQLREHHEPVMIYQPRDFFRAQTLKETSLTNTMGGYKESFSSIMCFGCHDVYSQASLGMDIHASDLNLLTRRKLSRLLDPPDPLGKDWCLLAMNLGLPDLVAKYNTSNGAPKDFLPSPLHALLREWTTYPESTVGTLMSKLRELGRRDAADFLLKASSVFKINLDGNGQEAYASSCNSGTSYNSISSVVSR
Chain of AXL (P30530 26-894): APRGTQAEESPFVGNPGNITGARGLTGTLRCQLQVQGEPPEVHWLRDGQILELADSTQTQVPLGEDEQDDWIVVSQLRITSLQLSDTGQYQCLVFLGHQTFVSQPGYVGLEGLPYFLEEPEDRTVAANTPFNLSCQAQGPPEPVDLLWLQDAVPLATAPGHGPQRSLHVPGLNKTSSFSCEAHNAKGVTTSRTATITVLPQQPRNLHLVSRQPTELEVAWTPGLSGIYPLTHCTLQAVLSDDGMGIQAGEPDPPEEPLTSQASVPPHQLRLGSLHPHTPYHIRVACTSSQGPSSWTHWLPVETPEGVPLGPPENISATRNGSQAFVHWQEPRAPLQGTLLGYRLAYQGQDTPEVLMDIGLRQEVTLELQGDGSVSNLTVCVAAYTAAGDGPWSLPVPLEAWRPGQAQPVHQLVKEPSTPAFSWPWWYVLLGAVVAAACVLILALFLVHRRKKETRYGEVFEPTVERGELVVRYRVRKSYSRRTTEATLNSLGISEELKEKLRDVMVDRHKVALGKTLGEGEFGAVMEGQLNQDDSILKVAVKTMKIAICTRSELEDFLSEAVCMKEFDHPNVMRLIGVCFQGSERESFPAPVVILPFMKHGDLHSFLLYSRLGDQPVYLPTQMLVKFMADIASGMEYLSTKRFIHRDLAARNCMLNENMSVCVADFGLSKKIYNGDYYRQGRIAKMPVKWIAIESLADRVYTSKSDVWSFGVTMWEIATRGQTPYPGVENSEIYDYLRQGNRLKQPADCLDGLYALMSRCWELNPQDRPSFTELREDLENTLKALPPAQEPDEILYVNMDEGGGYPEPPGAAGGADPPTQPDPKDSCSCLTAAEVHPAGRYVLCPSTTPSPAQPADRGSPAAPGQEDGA
Chain of DCLK3/DCAMKL3 (Q9C098 whole entry): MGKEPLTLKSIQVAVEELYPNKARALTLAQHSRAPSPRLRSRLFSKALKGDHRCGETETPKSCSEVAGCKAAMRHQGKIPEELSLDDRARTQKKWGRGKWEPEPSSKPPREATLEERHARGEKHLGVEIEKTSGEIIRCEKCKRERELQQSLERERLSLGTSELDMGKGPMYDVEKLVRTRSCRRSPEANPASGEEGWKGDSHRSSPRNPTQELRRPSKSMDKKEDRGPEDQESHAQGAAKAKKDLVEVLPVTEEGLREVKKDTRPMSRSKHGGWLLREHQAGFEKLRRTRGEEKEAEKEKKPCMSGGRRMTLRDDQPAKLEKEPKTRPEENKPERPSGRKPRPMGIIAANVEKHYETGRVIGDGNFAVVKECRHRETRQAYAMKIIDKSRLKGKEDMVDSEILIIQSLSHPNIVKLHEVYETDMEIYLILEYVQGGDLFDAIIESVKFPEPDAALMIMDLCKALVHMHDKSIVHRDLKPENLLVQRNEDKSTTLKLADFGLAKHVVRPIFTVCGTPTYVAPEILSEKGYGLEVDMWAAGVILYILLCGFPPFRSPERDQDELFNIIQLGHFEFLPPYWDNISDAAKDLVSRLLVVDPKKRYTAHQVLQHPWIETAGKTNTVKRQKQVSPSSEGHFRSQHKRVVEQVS
Chain of NUAK1/ARK5 (O60285 whole entry): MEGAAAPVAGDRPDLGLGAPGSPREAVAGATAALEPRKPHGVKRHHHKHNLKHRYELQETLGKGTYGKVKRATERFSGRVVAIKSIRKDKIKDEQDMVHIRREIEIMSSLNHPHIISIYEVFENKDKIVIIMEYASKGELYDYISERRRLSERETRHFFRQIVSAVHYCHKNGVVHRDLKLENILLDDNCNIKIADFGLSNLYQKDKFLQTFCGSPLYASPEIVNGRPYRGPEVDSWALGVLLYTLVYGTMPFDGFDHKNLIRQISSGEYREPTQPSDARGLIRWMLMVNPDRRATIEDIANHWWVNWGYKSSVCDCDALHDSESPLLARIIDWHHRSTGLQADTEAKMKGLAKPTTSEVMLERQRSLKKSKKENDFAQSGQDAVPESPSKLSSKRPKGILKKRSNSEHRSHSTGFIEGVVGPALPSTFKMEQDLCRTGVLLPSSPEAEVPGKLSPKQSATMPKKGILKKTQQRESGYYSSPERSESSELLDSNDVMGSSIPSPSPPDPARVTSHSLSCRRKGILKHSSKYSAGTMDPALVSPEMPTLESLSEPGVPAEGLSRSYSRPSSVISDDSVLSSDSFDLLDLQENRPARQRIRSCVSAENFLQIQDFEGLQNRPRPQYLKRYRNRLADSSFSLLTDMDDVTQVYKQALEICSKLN
T3 sequence (Q13163 whole entry): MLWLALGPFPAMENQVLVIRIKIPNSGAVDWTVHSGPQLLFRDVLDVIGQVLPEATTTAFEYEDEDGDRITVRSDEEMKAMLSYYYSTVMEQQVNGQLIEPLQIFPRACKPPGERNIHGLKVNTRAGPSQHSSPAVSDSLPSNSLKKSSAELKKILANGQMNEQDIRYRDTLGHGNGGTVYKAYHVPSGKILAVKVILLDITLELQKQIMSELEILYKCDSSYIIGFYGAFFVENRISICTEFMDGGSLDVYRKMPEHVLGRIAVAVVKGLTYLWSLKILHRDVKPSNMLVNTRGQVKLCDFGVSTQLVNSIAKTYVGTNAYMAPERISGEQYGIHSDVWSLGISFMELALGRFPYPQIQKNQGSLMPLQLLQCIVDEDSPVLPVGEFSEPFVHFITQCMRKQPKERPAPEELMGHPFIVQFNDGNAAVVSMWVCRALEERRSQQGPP

Question: Which inhibition at 1 µM (AXL) does the source give for `COc1ccc2[nH]c3c4[nH]c5ccc(OC)cc5c4c4c(c3c2c1)C(=O)NC4=O` [GW296115] here?
Answer: The inhibition at 1 µM was 75%.

Question: And the inhibition at 1 µM (BRSK1)?
Answer: The inhibition at 1 µM was 82%.

Question: What about the inhibition at 1 µM (DMPK) of the same compound?
Answer: The inhibition at 1 µM was 75%.

Question: And the inhibition at 1 µM (PHKG1)?
Answer: Its inhibition at 1 µM is 82%.

Question: What about the inhibition at 1 µM (DCLK3/DCAMKL3) of the same compound?
Answer: The inhibition at 1 µM was 83%.

Question: And the inhibition at 1 µM (BRSK2)?
Answer: Its inhibition at 1 µM is 83%.

Question: And the inhibition at 1 µM (SGK3)?
Answer: The inhibition at 1 µM was 86%.

Question: What about the inhibition at 1 µM (NUAK1/ARK5) of the same compound?
Answer: Its inhibition at 1 µM is 85%.

Question: And the inhibition at 1 µM (DAPK1)?
Answer: Its inhibition at 1 µM is 78%.

Question: And the IC50 [1]?
Answer: The IC50 was 2 µM.

Question: What about the IC50 (MAP2K5/MEK5) of the same compound?
Answer: Its IC50 is > 10 µM.

From publication PMC7522982, “PKIS deep dive yields a chemical starting point for dark kinases and a cell active BRSK2 inhibitor” (Scientific Reports, 2020)
